The text below walks through data of patent US8884030B2, “Inhibitors of Flaviviridae viruses” (priority 2010, dated 2014).

This experiment relates to human hepatoma Huh-7 cell line harboring a HCV replicon. Put plainly: HCV replicon assay (inhibition of viral replication, luciferase). It is filed as cell-based. Particulars: Hepatitis C virus, 72 h; 2 μM; Huh-7 HCV replicon cells, 3 days incubation; inhibition of viral replication; read-out: % inhibition at 2 μM. As to the method: The anti-HCV activity of the compounds of this invention was tested in a human hepatoma Huh-7 cell line harboring a HCV replicon. The assay comprised the following steps:
Step 1: Compound Preparation and Serial Dilution.
Serial dilution was performed in 100% DMSO in a 384-well plate. A solution containing a compound at 225-fold concentration of the starting final serial dilution concentration was prepared in 100% DMSO and 15 uL added to the pre-specified wells in column 3 or 13 of a polypropylene 384-well plate. The rest of the 384-well plate was filled with 10 uL 100% DMSO except for columns 23 and 24, where 10 uL of 500 uM a HCV protease inhibitor (ITMN-191) in 100% DMSO was added. The HCV protease inhibitor was used a control of 100% inhibition of HCV replication. The plate was then placed on a Biomek FX Workstation to start the serial dilution. The serial dilution was performed for ten cycles of 3-fold dilution from column 3 to 12 or from column 13 to 22.
Step 2: Cell Culture Plate Preparation and Compound Addition
To each well of a black polypropylene 384-well plate, 90 μL of cell media containing 1600 suspended Huh-7 HCV replicon cells was added with a Biotek uFlow Workstation. A volume of 0.4 μL of the compound solution was transferred from the serial dilution plate to the cell culture plate on a Biomek FX Workstation. The DMSO concentration in the final assay condition was 0.44%. The plates were incubated for 3 days at 37° C. with 5% CO2 and 85% humidity.
Step 3: Detection of Cytotoxicity and Inhibition of Viral Replication
a) Assessment of cytotoxicity: The media in the 384-well cell culture plate was aspirated with a Biotek EL405 plate-washer. A volume of 50 μL of a solution containing 400 nM Calcein AM in 100% PBS was added to each well of the plate with a Biotek uFlow Workstation. The plate was incubated for 30 minutes at room temperature before the fluorescence signal ([…]) was measured with a Perkin Elmer Envision Plate Reader.
b) Assessment of inhibition of viral replication: The calcein-PBS solution in the 384-well cell culture plate was aspirated with a Biotek EL405 plate-washer. A volume of 20 μL of Dual-Glo luciferase buffer (Promega, Dual-Glo Luciferase Assay Reagent, cat. #E298B) was added to each well of the plate with a Biotek uFlow Workstation. The plate was incubated for 10 minutes at room temperature. A volume of 20 μL of a solution containing 1:100 mixture of Dual-Glo Stop & Glo substrate(Promega, Dual-Glo Luciferase Assay Reagent, cat. #E313B) and Dual-Glo Stop & Glo buffer (Promega, Dual-Glo Luciferase Assay Reagent, cat. #E314B) was then added to each well of the plate with a Biotek uFlow Workstation. The plate was incubated at room temperature for 10 minutes before the luminescence signal was measured with a Perkin Elmer Envision Plate Reader.
The percent cytotoxicity was determined by calcein AM conversion to fluorescent product. The average fluorescent signal from the DMSO control wells were defined as 100% nontoxic. The individual fluorescent signal from testing compound treated well was divided by the average signal from DMSO control wells and then multiplied by 100% to get the percent viability. The percent anti-HCV replication activity was determined by the luminescence signal from the testing well compared to DMSO controls wells. The background signal was determined by the average luminescence signal from the HCV protease inhibitor treated wells and was subtracted from the signal from the testing wells as well as the DMSO control wells. Following 3-fold serial dilutions, the EC50 and CC50 values were calculated by fitting % inhibition at each concentration to the following equation: % inhibition=100%[(EC50/[l])^b+1]
Where b is Hill's coefficient. See, for reference, Hill, A. V., The Possible Effects of the Aggregation of the Molecules of Hæmoglobin on its Dissociation Curves, J. Physiol. 40: iv-vii. (1910). […]
In the case of `CC(C)(C)C#Cc1cc(N(C(=O)[C@H]2CC[C@H](C)CC2)[C@H]2CCN(C(=O)OC3(C)CN(C(=O)OC(C)(C)C)C3)C2)c(C(=O)O)s1` [Compound 69, 3-[[2-carboxy-5-(3,3-dimethyl-but-1-ynyl)-thiophen-3-yl]-(trans-4-methyl-cyclohexanecarbonyl)-3-(S)-amino]-pyrrolidine-1-carboxylic acid 1-tert-butoxycarbonyl-3-methyl-azetidin-3-yl ester], the inhibition at 2 µM was determined as 99.5%.

Take `CC(C)(C)C#Cc1cc(N(C(=O)[C@H]2CC[C@H](C)CC2)[C@H]2CCN(C(=O)O[C@@H]3CCOC3)C2)c(C(=O)O)s1` [Compound 42, 3-(S)-[[2-carboxy-5-(3,3-dimethyl-but-1-ynyl)-thiophen-3-yl]-(4-trans-methyl-cyclohexanecarbonyl)-amino]-pyrrolidine-1-carboxylic acid tetrahydro-furan-3-(R)-yl ester]: the inhibition at 2 µM is 99.9%.

With `CC(C)(C)C#Cc1cc(N(C(=O)[C@H]2CC[C@H](C)CC2)C2CCC(NC(=O)OC3(C)CCNC3)CC2)c(C(=O)O)s1` (stereo partly drawn) [Compound 76, 5-(3,3-Dimethyl-but-1-ynyl)-3-{(trans-4-cyclohexanecarbonyl)-[4-(3-methyl-pyrrolidin-3-yloxycarbonylamino)-cyclohexyl]-amino}-thiophene-2-carboxylic acid], the inhibition at 2 µM was 99.4%.

Take `CC1CCC(C(=O)N(c2cc(C#CC(C)(C)C)sc2C(=O)O)N(C)c2ccccn2)CC1` (stereo not drawn) [Compound 137, 5-(3,3-dimethyl-but-1-ynyl)-3-[N′-methyl-N-(4-methyl-cyclohexanecarbonyl)-N′-pyridin-2-yl-hydrazino]-thiophene-2-carboxylic acid]: the inhibition at 2 µM was found to be 100%.

In the case of `CC(C)(C)C#Cc1cc(N(C(=O)[C@H]2CC[C@H](C)CC2)C2CCN(C(=O)O[C@H]3CO[C@H]4OCC[C@H]43)CC2)c(C(=O)O)s1` [Compound 36, 4-[[2-carboxy-5-(3,3-dimethyl-but-1-ynyl)-thiophen-3-yl]-(4-methyl-cyclohexanecarbonyl)-amino]-piperidine-1-carboxylic acid hexahydro-furo[2,3-b]furan-3-(R)-yl ester], the inhibition at 2 µM came to 100%.

As to `CC(C)(C)C#Cc1cc(N(C(=O)[C@H]2CC[C@H](C)CC2)[C@H]2CCN(C(=O)OC3CCN(C(=O)OC(C)(C)C)CC3)C2)c(C(=O)O)s1` [Compound 39, 4-{3-(S)-[[2-carboxy-5-(3,3-dimethyl-but-1-ynyl)-thiophen-3-yl]-(4-trans-methyl-cyclohexanecarbonyl)-amino]-pyrrolidine-1-carbonyloxy}-piperidine-1-carboxylic acid tert-butyl ester], the inhibition at 2 µM came out at 98.8%.

As for `CC(C)(C)C#Cc1cc(N(C(=O)[C@H]2CC[C@H](C)CC2)C2CCN(C(=O)O[C@@H]3CCOC3)CC2)c(C(=O)O)s1` [Compound 53, 4-[[2-carboxy-5-(3,3-dimethyl-but-1-ynyl)-thiophen-3-yl]-(4-trans-methyl-cyclohexanecarbonyl)-amino]-piperidine-1-carboxylic acid tetrahydro-furan-3-(R)-yl ester], the inhibition at 2 µM amounted to 99.9%.

Consider `CC(C)(C)C#Cc1cc(N(C(=O)[C@H]2CC[C@H](C)CC2)C2CCN(C(=O)O[C@@H]3CCCNC3)CC2)c(C(=O)O)s1` [Compound 52, 4-[[2-carboxy-5-(3,3-dimethyl-but-1-ynyl)-thiophen-3-yl]-(4-trans-methyl-cyclohexanecarbonyl)-amino]-piperidine-1-carboxylic acid piperidin-3-(R)-yl ester], for which the inhibition at 2 µM was found to be 93.5%.

Turning to `CN([C@H]1CC[C@H](N(c2cc(C#CC(C)(C)C)sc2C(=O)O)C(=O)[C@H]2CC[C@H](C)CC2)CC1)S(=O)(=O)c1cccnc1` [Compound 164, 5-(3,3-dimethyl-but-1-ynyl)-3-((4-trans-methyl-cyclohexanecarbonyl)-{4-trans-[methyl-(pyridine-3-sulfonyl)-amino]-cyclohexyl}-amino)-thiophene-2-carboxylic acid], the inhibition at 2 µM was 98.9%.
